Values after ≈ are worked out from the molar mass of the structure shown. Where two headings read alike, the source gives them in different places.
How the values were obtained:
[1] = system: Candida albicans (ATCC 10231); assay: Anti-fungal susceptibility test (microdilution), fungus A; assay type: cell-based; details: Candida albicans, ATCC10231, no visible growth after 48 hours at 35° C, read-out: MIC
Procedure: (§1) The antifungal activities of the test compounds (compounds of the invention and known prior art compounds) were measured according to standard microdilution methods (Cryptococcus/Aspergillus: Ghannoum et al., Journal of Clinical Microbiology 1992, 30 (11): 2881-2886; Candida: Reference method for broth dilution susceptibility testing of yeast: proposed standard, NCCLS document M27-P, National Committee for Clinical Laboratory Standards 1992, Villanova, Pa).
(§2) A serial dilution series starting from 64 µg/mL test compound per well down to 0.125 µg/mL test compound per well was applied for each test compound on each fungus. The MIC of each compound was defined as the concentration which produces no visible growth after 48 hours (Candida) and 72 hours (Cryptococcus, Aspergillus) of culture at 35° C.
(§3) The following fungi were assessed: • A) Candida albicans (ATCC 10231) • B) Candida albicans (ATCC 90028) • C) Candida albicans (strain TS3, Shrikantha et al., Journal of Bacteriology 2000, 182(6):1580-1591) • D) Candida parapsilosis (ATCC 22019) • E) Cryptocoocus neoformans (ATCC 90112) • F) Cryptocoocus neoformans (strain H99; Ganendren et al., Antimicrobial Agents and Chemotherapy, 2004, 48(5):1561-1569) • G) Cryptocoocus gattii (ATCC 32608) • H) Aspergillus fumigatus (ATCC 204305) • I) Aspergillus fumigatus (strain 322-384)

[2] = system: Candida albicans (ATCC 90028); assay: Anti-fungal susceptibility test (microdilution), fungus B; assay type: cell-based; details: Candida albicans, ATCC90028, no visible growth after 48 hours at 35° C, read-out: MIC
Procedure: as §1, §2, §3

[3] = system: Candida albicans (strain TS3); assay: Anti-fungal susceptibility test (microdilution), fungus C; assay type: cell-based; details: Candida albicans, no visible growth after 48 hours at 35° C, read-out: MIC
Procedure: as §1, §2, §3

[4] = system: Candida parapsilosis (ATCC 22019); assay: Anti-fungal susceptibility test (microdilution), fungus D; assay type: cell-based; details: ATCC22019, no visible growth after 48 hours at 35° C, read-out: MIC
Procedure: as §1, §2, §3

[5] = system: Cryptocoocus neoformans (ATCC 90112); assay: Anti-fungal susceptibility test (microdilution), fungus E; assay type: cell-based
Procedure: as §1, §2, §3

[6] = system: Cryptocoocus neoformans (strain H99); assay: Anti-fungal susceptibility test (microdilution), fungus F; assay type: cell-based
Procedure: as §1, §2, §3

[7] = system: Cryptocoocus gattii (ATCC 32608); assay: Anti-fungal susceptibility test (microdilution), fungus G; assay type: cell-based
Procedure: as §1, §2, §3

[8] = system: Aspergillus fumigatus (ATCC 204305); assay: Anti-fungal susceptibility test (microdilution), fungus H; assay type: cell-based; details: Aspergillus fumigatus, ATCC204305, no visible growth after 72 hours at 35° C, read-out: MIC
Procedure: as §1, §2, §3

[9] = system: Aspergillus fumigatus (strain 322-384); assay: Anti-fungal susceptibility test (microdilution), fungus I; assay type: cell-based; details: Aspergillus fumigatus, no visible growth after 72 hours at 35° C, read-out: MIC
Procedure: as §1, §2, §3

[10] = system: Trypanosoma cruzi (Tulahuan-LACZ amstigotes in PEM); assay: In vitro drug activity assay, protozoon A (amastigotes in murine peritoneal macrophages, CPRG readout); assay type: cell-based; details: infected macrophages exposed for 3 days
Procedure: Murine (CD1) peritoneal macrophages were harvested 24 hours after starch induction and dispensed into 96-well plates at a concentration of 4 x 10^5 mL. After 24 hours, the cells were infected with Trypanosoma cruzi Tulahuan LAC-Z amastigotes (grown and cultured according to Buckner et al., Infection and Immunity 1999, 67(1): 403-409). 24 hours later, the infected cells were exposed to the test compounds (compounds of the invention as well as known prior art compounds) for 3 days and 50 µL of 500 µM CPRG-1% Nonidet P-40 was added to each well. The plates were read after 2 to 5 hours at 570 nm (Buckner et al., Antimicrobial Agents and Chemotherapy 1996, 40(11): 2592-2597). ED50 values were calculated with Msxlfit (IDBS).
(§4) The following protozoa were assessed: • A) Trypanosoma cruzi (Tulahuan-LACZ amstigotes in PEM, Lorente SO et al., Antimicrobial agents and chemotherapy 2004, 48(8): 2937-2950; Buckner et al., Infection and Immunity 1999, 67(1): 403-409; Buckner et al., Antimicrobial Agents and Chemotherapy 1996, 40(11): 2592-2597) • B) Trypanosoma brucei rhodesiense (strain STIB900, Lorente SO et al., Antimicrobial agents and chemotherapy 2004, 48(8): 2937-2950; Habtemariam S, BMC Pharmacology 2003, 3:6) • C) Plasmodium falciparum (strain K1, Korsinczky M et al., Antimicrobial agents and chemotherapy 2000, 44(8): 2100-2108; Thaitong S and Beale GH, Trans. R. Soc. Trop. Med. Hyg. 1981, 75: 271-273; Trager W and Jensen JB, Science 1976, 193: 673-675) • D) Plasmodium falciparum (strain 3D7, Mu et al., PLoS Biology 2005, 3(10): e335)

[11] = system: Trypanosoma brucei rhodesiense (strain STIB900); assay: In vitro drug activity assay, protozoon B (bloodstream form trypomastigotes, Alamar Blue); assay type: cell-based; details: incubated for 72 hours
Procedure: Trypanosoma brucei rhodesiense STIB900 bloodstream form trypomastigotes were maintained in HMI-18 medium (Hirumi H, Hirumi K, J Parasitol. 1989, 75(6):985-989) with 15% heat-inactivated fetal calf serum at 37°C, 5% CO2, humidified atmosphere. Trypomastigotes were washed and resuspended in fresh medium at a concentration of 2 x 10^5 mL. Test compounds were given to the trypomastigotes and plates were incubated for 72 hours at 37°C, 5% CO2, humidified atmosphere. At 72 hours the plates were assessed microscopically before Alamar Blue was added (Raz et al., Acta Trop. 1997, 68: 139-147). Plates were read after 5 to 6 hours at EX/EM 530/585 nm with a filter cutoff at 550 nm. ED50 values were calculated with Msxlfit (IDBS).
as §4

[12] = system: Plasmodium falciparum (strain K1); assay: In vitro drug susceptibility assay, protozoon C (3[H]-hypoxanthine method); assay type: cell-based
Procedure: (§5) Plasmodium falciparum strain K1 and strain 3D7 parasites were cultured according to Trager W and Jensen JB (Science 1976, 193: 673-675). In vitro drug susceptibility assays with the test compounds were carried out according to Korsinczky M et al. (Antimicrobial agents and chemotherapy 2000, 44(8): 2100-2108) and Fivelman QL et al. (Antimicrobial agents and chemotherapy 2004, 48(11): 4097-4102) using a ^3[H]-hypoxanthine radioisotope method. ED50 values were calculated with Msxlfit (IDBS).
as §4

[13] = system: Plasmodium falciparum (strain 3D7); assay: In vitro drug susceptibility assay, protozoon D (3[H]-hypoxanthine method); assay type: cell-based
Procedure: as §5, §4

Leishmaniasis = details: clinical phase III trials, parenteral; cited from earlier work

Row | SMILES | MIC [1] | MIC [2] | MIC [3] | MIC [4] | MIC ([5]; 72 h) | MIC ([6]; 72 h) | MIC ([7]; 72 h) | MIC [8] | MIC [9] | ED50 (µg/mL) [10] | ED50 (µg/mL) [11] | ED50 (µg/mL) [12] | ED50 (µg/mL) [13] | MIC ([5]; fungus E, no visible growth after 72 hours at 35° C, read-out: MIC) | MIC ([6]; fungus F, no visible growth after 72 hours at 35° C, read-out: MIC) | MIC ([7]; fungus G, no visible growth after 72 hours at 35° C, read-out: MIC) | efficient in % of the cases (Leishmaniasis)
1 | CCCCCCCCCCCCCCCCOP(=O)([O-])OCC[N+]12CCC(CC1)CC2 [Compound 3, Phosphoric acid 2-(1-aza-bicyclo[2.2.2]oct-1-yl)-ethyl ester hexadecyl ester] | 1 µg/mL (≈ 2.18 µM) | 1 µg/mL (≈ 2.18 µM) | 2 µg/mL (≈ 4.35 µM) | 2 µg/mL (≈ 4.35 µM) | 1.5 µg/mL (≈ 3.26 µM) | 1 µg/mL (≈ 2.18 µM) | 0.75 µg/mL (≈ 1.63 µM) | 3 µg/mL (≈ 6.53 µM) | 2 µg/mL (≈ 4.35 µM) | 0,33 µg/mL | 25,03 µg/mL | 8,03 µg/mL | 2,25 µg/mL |  |  |  | 
2 | CCCCCCCCCCCCCCCCCCOP(=O)([O-])OC1CC[N+](CC)(CC)CC1 [Compound 5, Phosphoric acid 1,1-diethyl-piperidin-4-yl ester octadecyl ester] | 2 µg/mL (≈ 4.08 µM) | 2 µg/mL (≈ 4.08 µM) | 2 µg/mL (≈ 4.08 µM) | 3 µg/mL (≈ 6.13 µM) |  |  |  | 6 µg/mL (≈ 12.3 µM) | 8 µg/mL (≈ 16.3 µM) | 1,43 µg/mL | 14,20 µg/mL | 21,26 µg/mL | 16,31 µg/mL | 1.5 µg/mL (≈ 3.06 µM) | 2 µg/mL (≈ 4.08 µM) | 0.75 µg/mL (≈ 1.53 µM) | 
3 | NC[C@@H]1O[C@H](O[C@H]2[C@@H](O)[C@H](O[C@@H]3[C@@H](O)[C@H](N)C[C@H](N)[C@H]3O[C@H]3O[C@H](CO)[C@@H](O)[C@H](O)[C@H]3N)O[C@@H]2CO)[C@H](N)[C@@H](O)[C@@H]1O [paromomycin] |  |  |  |  |  |  |  |  |  |  |  |  |  |  |  |  | 95%

From patent EP1800684A1, “Novel alkyl phospholipid derivatives and uses thereof” (Zentaris GmbH, priority 2005, dated 2007)
